Experimental data as given in US12319652B2, “Salts and solid forms of (R)-1-(5-methoxy-1H-indol-1-yl)-N,N-dimethylpropan-2-amine” (priority 2021, dated 2025).

Test: Solubility determinations in SIF buffers (FaSSIF, FeSSIF, FaSSGF)
Assay type: physicochemical
Experimental: At this stage ca. 1 g of each front-runner salt form was prepared. Salt forms that offered significant solubility and stability advantages over the non-ionized API were prioritized. […] Scale Up
The solubility of the salts below was determined in FaSSIF, FeSSIF and FaSSGF by reference to the calibration curve of amorphous compound 1.
Separate portions of compound 1 were weighed out into aluminum boats and were charged to the relevant volumetric flasks. Solutions were made to volume with 1 to 1 (v/v) acetonitrile/purified water to give calibrants of known API concentrations and analyzed by HPLC, suitable to determine the concentration of compound 1 free base in the SIF buffer solubility study.
Each sample (150 mg) was suspended in the relevant SIF buffer (5.0 ml), to give a concentration of 30 mg/ml and maintain at 37° C. for 24 h. The pH was adjusted using 1 M HCl or 1 M NaOH, to ensure that the suspension remains in range.
Sample (1 ml) of the well-stirred representative suspensions was obtained at 1 h, 3 h, 6 h and 24 h and the pH was recorded. The pH of the bulk suspension was re-adjusted when necessary. The obtained sample from each vial was centrifuged, and the supernatant was analysed by HPLC (note, the analyte was diluted, when outside of the calibration range); XRPD analysis was performed on the wet sample pellet for evidence of form change, as well as on the oven-dried pellet (undervacuum at 40° C.).

COc1ccc2c(ccn2C[C@@H](C)N(C)C)c1.O=C(O)c1ccccc1 [Compound 1.Benzoate]
HPLC peak RRT 1.00 (Compound 1) (input salt before FaSSGF): 99.64 | HPLC peak RRT 1.09 (input salt before FaSSGF): 0.03 | HPLC peak RRT 1.17 (input salt before FaSSGF): 0.03 | HPLC peak RRT 1.18 (input salt before FaSSGF): 0.10 | HPLC peak RRT 1.19 (input salt before FaSSGF): 0.02 | HPLC peak RRT 1.24 (input salt before FaSSGF): 0.06 | HPLC peak RRT 1.28 (input salt before FaSSGF): 0.01 | HPLC peak RRT 1.33 (input salt before FaSSGF): 0.10 | HPLC peak RRT 0.90 (t = 1 h in FaSSGF): 0.07 | HPLC peak RRT 0.92 (t = 1 h in FaSSGF): 0.05 | HPLC peak RRT 1.00 (Compound 1) (t = 1 h in FaSSGF): 99.28 | HPLC peak RRT 1.07 (t = 1 h in FaSSGF): 0.04 | HPLC peak RRT 1.09 (t = 1 h in FaSSGF): 0.06 | HPLC peak RRT 1.17 (t = 1 h in FaSSGF): 0.04 | HPLC peak RRT 1.19 (t = 1 h in FaSSGF): 0.15 | HPLC peak RRT 1.27 (t = 1 h in FaSSGF): 0.11 | HPLC peak RRT 1.28 (t = 1 h in FaSSGF): 0.05 | HPLC peak RRT 1.33 (t = 1 h in FaSSGF): 0.15 | HPLC peak RRT 0.97 (t = 3 h in FaSSGF): 0.04 | HPLC peak RRT 1.00 (Compound 1) (t = 3 h in FaSSGF): 99.62 | HPLC peak RRT 1.07 (t = 3 h in FaSSGF): 0.03 | HPLC peak RRT 1.17 (t = 3 h in FaSSGF): 0.15 | HPLC peak RRT 1.33 (t = 3 h in FaSSGF): 0.16 | HPLC peak RRT 1.00 (Compound 1) (t = 6 h in FaSSGF): 99.61 | HPLC peak RRT 1.17 (t = 6 h in FaSSGF): 0.12 | HPLC peak RRT 1.24 (t = 6 h in FaSSGF): 0.08 | HPLC peak RRT 1.25 (t = 6 h in FaSSGF): 0.04 | HPLC peak RRT 1.32 (t = 6 h in FaSSGF): 0.06 | HPLC peak RRT 1.33 (t = 6 h in FaSSGF): 0.09 | HPLC peak RRT 1.00 (Compound 1) (t = 24 h in FaSSGF): 99.73 | HPLC peak RRT 1.17 (t = 24 h in FaSSGF): 0.15 | HPLC peak RRT 1.32 (t = 24 h in FaSSGF): 0.07 | HPLC peak RRT 1.33 (t = 24 h in FaSSGF): 0.06
